Consider 8 compounds from patent US11034650B2, “Compounds useful for treating a Mannheimia haemolytica or Histophilus somni infection” (Intervet Inc., priority 2016, dated 2021).

In brackets after ≈: the same amount, converted by molar mass.

Common to all, as to format: cell-based
The subject of test [1] is Mannheimia haemolytica MH 6357 (M7/2, reference strain, cattle infection strain). Briefly: MIC, broth-microdilution (CLSI VET01-A4), strain MH 6357. Conditions: Mannheimia haemolytica strain MH 6357, broth-microdilution; unit assumed. The method in brief:
(§1)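 Broth microdilution per CLSI VET01-A4, using trays with a doubling dilution series of compound; results interpreted per CLSI VET01-S3. MIC taken as lowest concentration with no turbidity visible to the unaided eye.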

For test [2], the system named is Mannheimia haemolytica MH 10720 (154, BRD field isolate). Briefly: MIC, broth-microdilution (CLSI VET01-A4), strain MH 10720. As to conditions: Mannheimia haemolytica strain MH 10720, broth-microdilution; unit assumed. In outline: as §1
A general note: Broth dilution looks for growth in wells or tubes with falling amounts of substance.

Test [3] has as its system Pasteurella multocida PM 12080 (IV102277-0093, BRD field isolate). Briefly: MIC, broth-microdilution (CLSI VET01-A4), strain PM 12080. As to conditions: Pasteurella multocida strain PM 12080, broth-microdilution; unit assumed. The method in brief: as §1
Test [4] deals with Mannheimia haemolytica MH 13065 (XB0446-6003.9, BRD field isolate). Description: MIC, broth-microdilution (CLSI VET01-A4), strain MH 13065. As to conditions: Mannheimia haemolytica strain MH 13065, broth-microdilution; unit assumed. In outline: as §1
The test system of test [5] is Mannheimia haemolytica MH 13093 (XB0472-6014.1, BRD field isolate). Description: MIC, broth-microdilution (CLSI VET01-A4), strain MH 13093. As to conditions: Mannheimia haemolytica strain MH 13093, broth-microdilution; unit assumed. The method in brief:
as §1

Test [6] relates to Mannheimia haemolytica MH 12587 (1071, BRD field isolate, macrolide-resistance: erm+, E+). Briefly: MIC, broth-microdilution (CLSI VET01-A4), strain MH 12587. Conditions: Mannheimia haemolytica strain MH 12587, broth-microdilution; unit assumed. The method in brief: as §1
Test [7] has as its system Pasteurella multocida PM 10775 (080130003051, BRD field isolate). Description: MIC, broth-microdilution (CLSI VET01-A4), strain PM 10775. As to conditions: Pasteurella multocida strain PM 10775, broth-microdilution; unit assumed. The method in brief:
as §1

In test [8] the test system is Pasteurella multocida PM 6391 (ATCC 43137, reference strain). Briefly: MIC, broth-microdilution (CLSI VET01-A4), strain PM 6391. Conditions: Pasteurella multocida strain PM 6391, broth-microdilution; unit assumed. How it is done: For example, representative compounds were tested against ***, Mannheimia haemolytica and Pasteurella multocida, using the conventional broth-dilution assay.
The Minimum inhibitory concentrations (MIC) of compounds according to the invention for a number of veterinary bacterial pathogens were determined by the broth-microdilution method according to CLSI document VET01-A4.
Microdilution trays containing a doubling dilution series of the test compound were used for the tests. The MIC results were interpreted according to the CLSI documents VET01-S3. The lowest concentration of compound at which no visible growth (i.e. no turbidity) detected by the unaided eye was recorded as the MIC.

Test [9] concerns Mannheimia haemolytica MH 6374 (ATCC 33396, reference strain). Description: MIC, broth-microdilution (CLSI VET01-A4), strain MH 6374. As to conditions: Mannheimia haemolytica strain MH 6374, broth-microdilution; unit assumed. In outline: as §1
Test [10] relates to Pasteurella multocida PM 6267 (P 2225 (L386), reference strain, mouse infection strain). Briefly: MIC, broth-microdilution (CLSI VET01-A4), strain PM 6267. As to conditions: Pasteurella multocida strain PM 6267, broth-microdilution; unit assumed. The method in brief:
as §1

Compound `C=CCNCc1ccc(C#Cc2ccc(C(=O)N[C@H](C(=O)NO)C(C)(C)SC)cc2)cc1` [C.236] displayed an MIC MH 6357 in [1] of 0.8 µg/mL (≈ 1.77 µM). The compound further had an MIC MH 10720 in test [2] of at most 0.1 µg/mL. The same compound gave an MIC PM 12080 in test [3] of 0.4 µg/mL (≈ 0.886 µM). In test [4], this compound had an MIC MH 13065 of 0.8 µg/mL (≈ 1.77 µM). This compound also displayed an MIC MH 13093 in test [5] of 0.8 µg/mL (≈ 1.77 µM). The compound further had an MIC MH 12587 in test [6] of 1.6 µg/mL (≈ 3.54 µM). For the same compound, the MIC PM 10775 in test [7] was at most 0.1 µg/mL. Moreover, the MIC PM 6391 in test [8] came to 0.4 µg/mL (≈ 0.886 µM). Also, in [9], the MIC MH 6374 was found to be 0.8 µg/mL (≈ 1.77 µM). In [10], this compound showed an MIC PM 6267 of at most 0.1 µg/mL.
Compound `COCCNCc1ccc(C#Cc2ccc(C(=O)N[C@H](C(=O)NO)C(C)(C)SC)cc2)cc1` [C.237] returned an MIC MH 6357 in test [1] of 1.6 µg/mL (≈ 3.41 µM). The MIC MH 10720 in [2] is 0.2 µg/mL (≈ 0.426 µM). Besides, in [3], the MIC PM 12080 turned out to be 0.4 µg/mL (≈ 0.852 µM). Besides, in [4], the MIC MH 13065 turned out to be 1.6 µg/mL (≈ 3.41 µM). In [5], the MIC MH 13093 came out at 1.6 µg/mL (≈ 3.41 µM). In [6], this compound had an MIC MH 12587 of 3.1 µg/mL (≈ 6.6 µM). In test [7], this compound showed an MIC PM 10775 of at most 0.1 µg/mL. Moreover, in test [8], the MIC PM 6391 came out at 0.8 µg/mL (≈ 1.7 µM). In addition, the MIC MH 6374 in [9] is 1.6 µg/mL (≈ 3.41 µM). In test [10], this compound yielded an MIC PM 6267 of 0.2 µg/mL (≈ 0.426 µM).
Regarding `CC(C)([C@H](NC(=O)c1ccc(C#Cc2ccc(CNC3CC3)cc2)cc1)C(=O)NO)S(C)(=O)=O` [C.255], the MIC MH 6357 in [1] was 0.8 µg/mL (≈ 1.65 µM). In addition, the MIC MH 10720 in test [2] was at most 0.1 µg/mL. This compound registered an MIC PM 12080 in test [3] of at most 0.1 µg/mL. The MIC MH 13065 in test [4] was 0.4 µg/mL (≈ 0.827 µM). In test [5], this compound registered an MIC MH 13093 of 0.8 µg/mL (≈ 1.65 µM). Besides, the MIC MH 12587 in [6] was 1.6 µg/mL (≈ 3.31 µM). This compound yielded an MIC PM 10775 in [7] of at most 0.1 µg/mL. In test [8], this compound showed an MIC PM 6391 of at most 0.1 µg/mL. The MIC MH 6374 in test [9] turned out to be 0.4 µg/mL (≈ 0.827 µM). The MIC PM 6267 in test [10] was at most 0.1 µg/mL.
`C=CCNCc1ccc(C#Cc2ccc(C(=O)N[C@H](C(=O)NO)C(C)(C)S(C)(=O)=O)cc2)cc1` [C.256]: the MIC MH 6357 in [1] was determined as 1.6 µg/mL (≈ 3.31 µM). The compound also displayed an MIC MH 10720 in test [2] of at most 0.1 µg/mL. This compound yielded an MIC PM 12080 in test [3] of at most 0.1 µg/mL. The same compound registered an MIC MH 13065 in test [4] of 0.8 µg/mL (≈ 1.65 µM). The compound further came in with an MIC MH 13093 in test [5] of 0.8 µg/mL (≈ 1.65 µM). The MIC MH 12587 in test [6] is 1.6 µg/mL (≈ 3.31 µM). In addition, in [7], the MIC PM 10775 was at most 0.1 µg/mL. In addition, in test [8], the MIC PM 6391 is at most 0.1 µg/mL. Further, the MIC MH 6374 in test [9] turned out to be 0.8 µg/mL (≈ 1.65 µM). Moreover, in [10], the MIC PM 6267 is at most 0.1 µg/mL.
`CC(C)([C@H](NC(=O)c1ccc(C#Cc2ccc(CNCc3ccccc3)cc2)cc1)C(=O)NO)S(C)(=O)=O` [C.259] had an MIC MH 6357 in [1] of 0.8 µg/mL (≈ 1.5 µM). The same compound registered an MIC MH 10720 in test [2] of at most 0.1 µg/mL. The compound also gave an MIC PM 12080 in test [3] of at most 0.1 µg/mL. The MIC MH 13065 in test [4] is 0.4 µg/mL (≈ 0.75 µM). In addition, the MIC MH 13093 in [5] is 0.8 µg/mL (≈ 1.5 µM). The MIC MH 12587 in test [6] amounted to 0.8 µg/mL (≈ 1.5 µM). Moreover, the MIC PM 10775 in test [7] was at most 0.1 µg/mL. Moreover, the MIC PM 6391 in test [8] was at most 0.1 µg/mL. In addition, in test [9], the MIC MH 6374 was determined as 0.4 µg/mL (≈ 0.75 µM). Moreover, the MIC PM 6267 in test [10] was at most 0.1 µg/mL.
As to `CC(C)([C@H](NC(=O)c1ccc(C#Cc2ccc(CNCc3ccncc3)cc2)cc1)C(=O)NO)S(C)(=O)=O` [C.261], the MIC MH 6357 in test [1] came to 0.4 µg/mL (≈ 0.748 µM). In test [2], this compound had an MIC MH 10720 of at most 0.1 µg/mL. This compound registered an MIC PM 12080 in test [3] of at most 0.1 µg/mL. Besides, in test [4], the MIC MH 13065 was determined as 0.4 µg/mL (≈ 0.748 µM). In test [5], this compound came in with an MIC MH 13093 of 0.4 µg/mL (≈ 0.748 µM). In test [6], this compound displayed an MIC MH 12587 of 0.8 µg/mL (≈ 1.5 µM). In addition, the MIC PM 10775 in test [7] is at most 0.1 µg/mL. In test [8], this compound showed an MIC PM 6391 of at most 0.1 µg/mL. Also, the MIC MH 6374 in test [9] is 0.4 µg/mL (≈ 0.748 µM). Further, in test [10], the MIC PM 6267 is at most 0.1 µg/mL.
For the compound `CC(C)([C@H](NC(=O)c1ccc(C#Cc2ccc(CNCc3cccnc3)cc2)cc1)C(=O)NO)S(C)(=O)=O` [C.267], in test [1], the MIC MH 6357 turned out to be 0.8 µg/mL (≈ 1.5 µM). The same compound returned an MIC MH 10720 in test [2] of at most 0.1 µg/mL. The same compound registered an MIC PM 12080 in test [3] of at most 0.1 µg/mL. This compound yielded an MIC MH 13065 in test [4] of 0.8 µg/mL (≈ 1.5 µM). The same compound yielded an MIC MH 13093 in [5] of 0.8 µg/mL (≈ 1.5 µM). The compound further came in with an MIC MH 12587 in test [6] of 1.6 µg/mL (≈ 2.99 µM). Besides, the MIC PM 10775 in test [7] is at most 0.1 µg/mL. In [8], the MIC PM 6391 is at most 0.1 µg/mL. For the same compound, the MIC MH 6374 in test [9] is 0.4 µg/mL (≈ 0.748 µM). In addition, the MIC PM 6267 in test [10] was at most 0.1 µg/mL.
`CC(C)([C@H](NC(=O)c1ccc(C#Cc2ccc(CNCc3ccccn3)cc2)cc1)C(=O)NO)S(C)(=O)=O` [C.269] returned an MIC MH 6357 in [1] of 1.6 µg/mL (≈ 2.99 µM). Moreover, the MIC MH 10720 in [2] is at most 0.1 µg/mL. For the same compound, the MIC PM 12080 in test [3] was at most 0.1 µg/mL. Besides, the MIC MH 13065 in test [4] is 1.6 µg/mL (≈ 2.99 µM). Further, in [5], the MIC MH 13093 stood at 0.8 µg/mL (≈ 1.5 µM). The compound also displayed an MIC MH 12587 in [6] of 1.6 µg/mL (≈ 2.99 µM). Moreover, the MIC PM 10775 in test [7] is at most 0.1 µg/mL. In test [8], this compound had an MIC PM 6391 of at most 0.1 µg/mL. Further, the MIC MH 6374 in [9] worked out at 0.4 µg/mL (≈ 0.748 µM). Also, the MIC PM 6267 in test [10] was at most 0.1 µg/mL.
